One assay relates to HepG2. The assay can be described thus: MTT anti-proliferative assay on HepG2. Conditions: Homo sapiens, HepG2, read-out: In vitro cytotoxicity IC50 HepG2. (Tetrazolium dyes change colour on reduction, which living cells bring about.)
In another assay the test system is MCF-7. The assay can be described thus: MTT anti-proliferative assay on MCF-7. Conditions: Homo sapiens, MCF7, read-out: In vitro cytotoxicity IC50 MCF-7.
Another assay relates to caspase-9. The assay can be described thus: Caspase-9 level in HepG2 cells. In kind it is cell-based, human.
Assay [1] concerns HepG2 cells. The assay can be described thus: Apoptosis assay, Annexin V-FITC/PI flow cytometry. Type of assay: cell-based, human. (A flow cytometer gives signals particle by particle.)
A further assay deals with Vero cells. The assay can be described thus: Safety assay on non-cancerous Vero cells. Type of assay: cell-based.
For assay [2], the target named is VEGFR-2 (Homo sapiens, UniProt P35968). Description: In vitro VEGFR-2 inhibition. In kind it is biochemical.
For assay [3], the system named is VEGFR-2. The assay can be described thus: MM-GBSA binding free energy and decomposition. The settings on record: 15a versus sorafenib.
The test system of assay [4] is HepG2 cells. The assay can be described thus: Wound healing. In kind it is cell-based, human.
The subject of the next assay is caspase-3. Description: Caspase-3 level in HepG2 cells. Type of assay: cell-based, human.
Setting [5] is: HepG2, 0.76 μM, control HepG2 = 1.

Each structure is given as a SMILES string.

VEGFR-2 (Homo sapiens, UniProt P35968), sequence (P35968 20-1356): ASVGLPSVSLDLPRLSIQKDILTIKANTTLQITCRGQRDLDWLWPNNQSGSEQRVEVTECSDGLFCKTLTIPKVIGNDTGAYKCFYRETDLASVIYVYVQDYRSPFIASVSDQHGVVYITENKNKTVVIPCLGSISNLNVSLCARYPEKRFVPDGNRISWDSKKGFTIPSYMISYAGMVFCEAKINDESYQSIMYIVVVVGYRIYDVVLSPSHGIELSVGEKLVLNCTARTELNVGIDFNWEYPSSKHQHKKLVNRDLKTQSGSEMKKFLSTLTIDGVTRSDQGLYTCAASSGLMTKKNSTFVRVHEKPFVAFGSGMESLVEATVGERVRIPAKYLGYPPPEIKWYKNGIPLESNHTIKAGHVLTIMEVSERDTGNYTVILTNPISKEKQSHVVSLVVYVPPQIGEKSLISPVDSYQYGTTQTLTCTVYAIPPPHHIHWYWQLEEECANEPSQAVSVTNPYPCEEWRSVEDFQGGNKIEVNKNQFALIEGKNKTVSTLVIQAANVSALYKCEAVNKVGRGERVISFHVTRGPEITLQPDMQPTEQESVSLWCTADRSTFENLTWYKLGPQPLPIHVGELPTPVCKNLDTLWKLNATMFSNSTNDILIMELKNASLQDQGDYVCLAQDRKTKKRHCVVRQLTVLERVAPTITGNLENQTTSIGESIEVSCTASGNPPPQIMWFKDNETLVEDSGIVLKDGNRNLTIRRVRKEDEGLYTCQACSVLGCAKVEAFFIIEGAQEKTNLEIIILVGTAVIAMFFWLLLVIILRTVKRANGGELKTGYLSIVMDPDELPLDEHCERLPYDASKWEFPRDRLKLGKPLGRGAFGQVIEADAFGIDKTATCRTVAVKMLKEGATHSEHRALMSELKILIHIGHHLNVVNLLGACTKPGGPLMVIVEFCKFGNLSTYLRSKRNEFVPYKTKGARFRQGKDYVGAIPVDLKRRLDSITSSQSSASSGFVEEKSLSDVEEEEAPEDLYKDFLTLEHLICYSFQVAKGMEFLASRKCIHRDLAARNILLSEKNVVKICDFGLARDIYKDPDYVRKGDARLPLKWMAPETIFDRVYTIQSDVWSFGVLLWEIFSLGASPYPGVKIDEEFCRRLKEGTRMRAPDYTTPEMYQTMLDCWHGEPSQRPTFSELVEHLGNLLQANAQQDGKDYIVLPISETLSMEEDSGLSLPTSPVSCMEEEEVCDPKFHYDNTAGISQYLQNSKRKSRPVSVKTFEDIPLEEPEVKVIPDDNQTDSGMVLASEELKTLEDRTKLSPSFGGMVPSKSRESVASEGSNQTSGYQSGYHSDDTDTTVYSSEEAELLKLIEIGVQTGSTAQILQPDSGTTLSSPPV

Take `CC(=NNC(=O)c1cccnc1)c1ccc(NC(=O)Cn2c(=O)c3c(ncn3C)n(C)c2=O)cc1` [Compound 17, 2-(3,7-Dimethyl-2,6-dioxo-2,3,6,7-tetrahydro-1H-purin-1-yl)-N-(4-(1-(2-nicotinoylhydrazono)ethyl)phenyl)acetamide]: the values for the IC50 in the assay on HepG2 and in the assay with MCF-7 were 1.05 ± 0.01 µM and 0.8 ± 0.01 µM, respectively.

`CC(=NNC(=O)c1cccc(Cl)c1)c1cccc(NC(=O)Cn2c(=O)c3c(ncn3C)n(C)c2=O)c1` [Compound 16, N-(3-(1-(2-(3-Chlorobenzoyl)hydrazono)ethyl)phenyl)-2-(3,7-dimethyl-2,6-dioxo-2,3,6,7-tetrahydro-1H-purin-1-yl)acetamide]: the IC50 (as a rule, the midpoint of a concentration-inhibition curve) in the assay with HepG2 turned out to be 1.23 ± 0.03 µM; in the assay with MCF-7, 2.47 ± 0.04 µM.

With `CC(=NNC(=O)c1cccc(Br)c1)c1ccc(NC(=O)Cn2c(=O)c3c(ncn3C)n(C)c2=O)cc1` [Compound 15a, N-(4-(1-(2-(3-Bromobenzoyl)hydrazono)ethyl)phenyl)-2-(3,7-dimethyl-2,6-dioxo-2,3,6,7-tetrahydro-1H-purin-1-yl)acetamide], the “increase of caspase-9 level compared to control” value in the assay on caspase-9 (HepG2, 0.76 μM (IC50 value)) worked out at 2.37 fold. Besides, the “Protein expression Caspase-9” value in the assay with caspase-9 (setting [5]) stood at 2.378. For the same molecule, the “Apoptosis Late” value with HepG2 cells [1] (HepG2, 0.76 µM for 72 h, control 0.13) was determined as 12.17. Moreover, in the assay on HepG2 cells [1] (HepG2, 0.76 µM for 72 h, control 0.71), the “Apoptosis Early” value was 9.63. The same molecule displayed a Necrosis in the assay with HepG2 cells [1] (HepG2, 0.76 µM for 72 h, control 2.22) of 7.69. The “Apoptosis Total” value in the assay on HepG2 cells [1] (HepG2, 0.76 µM for 72 h, control 3.06) is 29.49. Besides, in the assay with HepG2 cells [1] (HepG2, from 0.71% in control), the “proportion of HepG2 cells in late-stage apoptosis” value was found to be 9.63%. Also, in the assay with HepG2 cells [1] (HepG2, from 3.06% in control), the “proportion of HepG2 cells in early-stage apoptosis” value came to 29.49%. The IC50 with Vero cells (Chlorocebus sabaeus, Vero, read-out: IC50 against Vero cells) was 75.2 µM; in the assay with HepG2, 0.76 ± 0.01 µM; against VEGFR-2 [2] it was 0.239 µM; with MCF-7, 1.08 ± 0.02 µM. In addition, the “selectivity index against HepG2” value in the assay with Vero cells (based on Vero IC50 versus HepG2 IC50) came out at 98.97. The “selectivity index against MCF7” value in the assay on Vero cells (based on Vero IC50 versus MCF-7 IC50) stood at 69.64. For the same molecule, in the assay on VEGFR-2 [3], the “MM-GBSA binding energy smaller than that of the reference compound by” value worked out at 8.5 kcal/mol. Moreover, the “decrease of scratch width” value in the assay with HepG2 cells [4] (HepG2, within 48 hours, untreated 65.9%) was 34.17%. For the same molecule, in the assay with HepG2 cells [4] (HepG2 scratch, 0 h), the “At 0 h Area” value stood at 1000.667. For the same molecule, the “At 0 h Width” value in the assay with HepG2 cells [4] (HepG2 scratch, 0 h) was determined as 999.7462. The “At 48 h Width” value with HepG2 cells [4] (HepG2 scratch, 48 h, control 339.5385) was determined as 657.7792. The “At 48 h Area” value in the assay with HepG2 cells [4] (HepG2 scratch, 48 h, control 340.5) is on record as 658.6667. This molecule also displayed an RM in the assay with HepG2 cells [4] (HepG2 scratch, after 48 hours, control 13.74681) of 7.124 μm. In the assay with HepG2 cells [4] (HepG2 scratch, after 48 hours, control 65.96135), this molecule gave a Wound closure of 34.18 % μm^2. In the assay with caspase-3 (HepG2, 0.76 μM (IC50 value)), the “increase of caspase-3 level compared to control” value is given as 3.45 fold. In addition, the “Protein expression Caspase-3” value in the assay with caspase-3 (setting [5]) worked out at 3.451.

As to `CC(=NNC(=O)c1ccccc1Cl)c1ccc(NC(=O)Cn2c(=O)c3c(ncn3C)n(C)c2=O)cc1` [Compound 15b, N-(4-(1-(2-(2-Chlorobenzoyl)hydrazono)ethyl)phenyl)-2-(3,7-dimethyl-2,6-dioxo-2,3,6,7-tetrahydro-1H-purin-1-yl)acetamide], the IC50 with HepG2 stood at 0.78 ± 0.02 µM; in the assay with MCF-7, 0.65 ± 0.01 µM.

As for `CNC(=O)c1cc(Oc2ccc(NC(=O)Nc3ccc(Cl)c(C(F)(F)F)c3)cc2)ccn1` [Sorafenib, reference compound], the IC50 in the assay with HepG2 was determined as 2.24 ± 0.06 µM; with MCF-7 it was 3.17 ± 0.01 µM.

The values are drawn from paper PMC10395314 (RSC Advances, 2023).
